Structures can show the parent of a compound that is named as a salt. Where two headings read alike, the source gives them in different places.
Columns and labels:
[1] = molecular target: T1, Poly(ADP-ribose) synthetase (Bos taurus, UniProt P18493); assay: Inhibition of Poly(ADP-ribose) synthetase; type: biochemical, calf
T1 construct: Poly (ADP-ribose) synthetase from calf thymus; from tissue; host or cells: calf thymus
Method: The enzyme assay is performed by placing the following in small glass tubes kept at 4°: 100 μl of buffer consisting of 0.5M Tris-HCl pH 8.0, 50 mM MgCl2, and 5 mM dithiothreitol; 50 μl of 1 mM [^3 H]nicotinamide adenine dinucleotide having a specific activity of 15 μCi/μmol; 100 μl of calf thymus DNA (0.3 mg/ml in water); 50 μl of calf thymus histone (Sigma, Type IIA, 0.5 mg/ml); 50 μl of inhibitor or inhibitor solvent; 150 μl of enzyme. The components are thoroughly mixed and warmed to 30° C. in a water bath. After 15 minutes the reaction is stopped by adding 2 ml of ice cold 15% trichloroacetic acid and the tubes are placed on ice for 15 minutes. The precipitate is collected on glass fiber filters and washed five times with ice cold 15% trichloroacetic acid. The filters were dried and radioactivity determined in a liquid scintillation counter.

V79 cells = assay: In vitro radiosensitizing activity at 37°: shoulder modifying effects (reduction in Dq); type: cell-based; conditions: for Shoulder Modification (% Reduction in DQ): hypoxic V79 cells, class symbols
Method: The shoulder region represents the inherent repair capabilities of a given cell line. […] To determine the hypoxic x-ray dose response, cells are rendered hypoxic four hours prior to the addition of the test compound by placing them in a 37° C. incubator within an anaerobic glove chamber (Forma). […] Drug is added (0.1 ml into 2 ml media in petri dish) within the anaerobic chamber and drug treatment is at the highest nontoxic dose for one hour at 37°. The oxic x-ray dose response is determined in a similar manner except that all manipulations are carried out in air. […] Cytotoxicity controls (drug only, no irradiation) are included as well as oxic and hypoxic untreated controls (irradiation only, no drug). Immediately following irradiation, cells are rinsed twice with 2 ml fresh media prior to the addition of 5 ml of fresh media. The cells are then incubated at 37° C. After six days, dishes are stained with crystal violet and colonies of 50 or more cells are counted to determine percent surviving cells versus x-ray dose. […] This is expressed by percent reduction in Dq where Dq is defined as the dose at the intersection of the regression line for the logarithmic portion of the survival curve with the 100% survival level. This is taken to represent the width of the shoulder region of the survival curve.

L1210 cells = assay: Inhibition of the repair of radiation-induced DNA damage as assessed by alkaline elution; type: cell-based
Method: Inhibition of the Repair of Radiation-Induced DNA Damage as Assessed by Alkaline Elution The basic alkaline elution assay is carried out according to the procedure of K. W. Kohn, […]. Erickson, and L. A. Zwelling in DNA Repair: A Laboratory Manual of Research Procedures (eds. E. C. Freidburg and […]) with slight modifications. Briefly, suspension cultures of exponentially growing L1210 cells (total of 4×10^6 cells) are labeled with 0.02 μCi/ml of [^14 C] thymidine plus 1 nmol/ml of unlabeled thymidine for 24 hours prior to use. L1210 cells used as an internal standard are grown in media supplemented with 0.1 μCi/ml of [^3 H]thymidine and 1 nmol/ml unlabeled thymidine. For the elution protocol cells are removed from the culture flasks, centrifuged, and resuspended in fresh media. Drug treatment for experimental cells is for one hour at 37°. After the treatment period control and drug-treated cells are given a dose of 10 Gy of x-rays and incubated at 37° C. for 10 minutes to allow for repair. Samples consisting of 5×10^5 cells contained in 5 ml of ice cold PBS are deposited directly on 25 mm polycarbonate filters (2 micron pore size). The cells are washed with 5 ml of cold PBS, then lysed by the addition of 5 ml of lysis solution (0.2% SDS, 0.25M tetrasodium EDTA pH 9.7). All procedures commencing at the time of lysis are carried out in the dark. Subsequent to lysis samples are treated with 2 ml of lysis solution containing proteinase-K (0.5 mg/ml) for one hour. The filters are then eluted with tetrapropyl ammonium hydroxide/0.025M EDTA (free acid form)/0.1% SDS, pH 12.1, at a constant flow rate of 0.037 ml/min. Fractions of 2 ml are collected in scintillation vials. […] To each fraction collected and the filter solution 15 ml of modified Ready-Gel scintillation fluid containing 0.7% acetic acid is added. The frequency of single-stranded DNA breakage was calculated as described by Kohn, et al. The data is corrected for the number of single-strand breaks in the […] samples (~20%).

KHT fibrosarcoma tumors = assay: In vivo assay for radiosensitization activity; parameters: species or system hybrid mice (B6C3F1); conditions: for In Vivo Radiosensitizing Activity: KHT tumors in mice, relative to misonidazole
Method: In Vivo Assay for Radiosensitization Activity
For this assay KHT fibrosarcoma tumors in hybrid mice (B6C3F1) weighing 20-25 g are used. The mice are randomized and implanted SC with the appropriate tumor brei on Day 0 (one implant/mouse). Samples from each donor tumor and/or from the final brei are incubated in thioglycolate media as a check for gross bacterial contamination. On Day 8 tumors are measured in two dimensions with calipers and animals with tumor masses in the range of 500 to 700 mg are selected for the assay. At this point the tumors contain approximately 20% hypoxic cells.
The test agents are dissolved in any of several vehicles at a fixed injection dose equal to 90-100% of the maximum tolerated dose. Additional suitable controls of test compound (no irradiation) and vehicle-injected and irradiated mice are also included. Mice are irradiated at a dose of 1700 RADs at various intervals both prior to and after intraperitoneal administration of the test agents.
By using these intervals, an indication of both the optimum time to irradiate and the degree of sensitization are obtained. Irradiation of the KHT tumors is by whole body irradiation of animals in movement restricting jigs at different total exposures as indicated. The x-ray source is a Phillips 320 KV instrument with a half-value thickness of 2.0 mm copper and a target to source distance of 17 inches, with a delivery rate of 2.0 Gy/minute. Animals are monitored for signs of acute toxicity after treatment.
After incubation for 12-16 days at 37° and staining, the colonies are counted. The data are expressed as % control versus time.

[2] = 30° C., 15 minutes, [3H]NAD, read-out: IC50
[3] = L1210 cells, 10 Gy x-rays, class symbols

T1 sequence (P18493 whole entry): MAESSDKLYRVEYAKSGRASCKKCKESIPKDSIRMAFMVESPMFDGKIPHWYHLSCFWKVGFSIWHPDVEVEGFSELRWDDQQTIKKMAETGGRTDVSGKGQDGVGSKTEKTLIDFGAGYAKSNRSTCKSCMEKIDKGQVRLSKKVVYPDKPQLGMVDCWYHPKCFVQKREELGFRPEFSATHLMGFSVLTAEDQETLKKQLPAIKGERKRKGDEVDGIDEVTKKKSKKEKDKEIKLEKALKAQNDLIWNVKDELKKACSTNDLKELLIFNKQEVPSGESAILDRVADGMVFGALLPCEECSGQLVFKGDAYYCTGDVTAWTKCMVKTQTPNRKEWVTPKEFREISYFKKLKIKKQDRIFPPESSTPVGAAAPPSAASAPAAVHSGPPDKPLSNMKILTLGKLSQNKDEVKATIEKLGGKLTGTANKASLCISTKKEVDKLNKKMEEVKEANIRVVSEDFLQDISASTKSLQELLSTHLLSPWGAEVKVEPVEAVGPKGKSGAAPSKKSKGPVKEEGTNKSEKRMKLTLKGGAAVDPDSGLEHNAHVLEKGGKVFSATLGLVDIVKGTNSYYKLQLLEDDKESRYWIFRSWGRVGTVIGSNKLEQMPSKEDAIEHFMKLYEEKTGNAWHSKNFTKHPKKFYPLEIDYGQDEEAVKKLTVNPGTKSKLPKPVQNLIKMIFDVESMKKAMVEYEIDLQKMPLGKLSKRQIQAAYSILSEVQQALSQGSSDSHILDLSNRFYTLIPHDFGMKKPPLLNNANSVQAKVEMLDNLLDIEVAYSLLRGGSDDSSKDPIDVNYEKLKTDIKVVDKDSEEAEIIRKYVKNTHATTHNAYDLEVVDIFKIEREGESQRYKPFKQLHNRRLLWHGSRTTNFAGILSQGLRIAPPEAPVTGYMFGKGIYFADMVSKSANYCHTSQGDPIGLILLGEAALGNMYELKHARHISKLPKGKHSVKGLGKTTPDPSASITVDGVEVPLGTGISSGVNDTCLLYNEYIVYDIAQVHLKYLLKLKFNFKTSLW

| IC50 [1, 2] [nM] | Structure (SMILES) | further results |
| --- | --- | --- |
| 2120 | COc1cccc2c(=O)[nH]c(-c3ccccc3)cc12 [Example XX, 5-Methoxy-3-phenyl-1(2H)-isoquinolinone] | – |
| 740 | Cc1cccc2c1CC(C)NC2=O (stereo not shown) [XVIII, 3,4-Dihydro-3,5-dimethyl-1(2H)-isoquinolinone] | – |
| 200 | CNCC(O)COc1cccc2c1CCNC2=O (stereo not shown) [XXXI, 3,4-Dihydro-5-[2-hydroxy-3-(methylamino)propoxy]-1(2H)-isoquinolinone] | – |
| 820 | O=C1NCCc2c(OCCN3CCCCC3)cccc21 [XXXIII, 3,4-Dihydro-5-[2-(1-piperidinyl)ethoxy]-1(2H)-isoquinolinone] | – |
| 330 | O=C1NCCc2c(OC[C@H](O)CN3CCCCC3)cccc21 [XLIX, (R)-3,4-Dihydro-5-[2-hydroxy-3-(1-piperidinyl)propoxy]-1(2H)-isoquinolinone] | – |
| 320 | O=C1NCCc2c(OCC(O)CN3CCCCC3)cccc21 (stereo not shown) [Example IV, 3,4-Dihydro-5-[2-hydroxy-3-(1-piperidinyl)propoxy]-1(2H)-isoquinolinone] | Shoulder Modification (% Reduction in DQ) (V79 cells): +++ (≥45%) |
| 2550 | O=C1NCCc2c(NCc3ccccc3)cccc21 [Example X, 3,4-Dihydro-5-[(phenylmethyl)amino]-1(2H)-isoquinolinone] | – |
| 420 | COc1cccc2c1CCNC2=O [Example V, 3,4-Dihydro-5-methoxy-1(2H)-isoquinolinone] | – |
| 970 | CN(C)COc1cccc2c1CCNC2=O [XIII] | – |
| 100 | O=C1NCCc2c(O)cccc21 [Example II, 3,4-Dihydro-5-hydroxy-1(2H)-isoquinolinone] | Shoulder Modification (% Reduction in DQ) (V79 cells): + (15-29%); Frequency of Unrepaired Strand Breaks (L1210 cells; [3]): ++ (201-300); In Vivo Radiosensitizing Activity (KHT fibrosarcoma tumors): + |
| 1000 | CCN(CC)CC(O)COc1cccc2c1CCNC2=O (stereo not shown) [XXX] | – |
| – | Cc1cccc2c1CCNC2=O [Example XII, 3,4-Dihydro-5-methyl-1(2H)-isoquinolinone] | IC50 [1]: 160 nM; Shoulder Modification (% Reduction in DQ) (V79 cells): ++ (30-44%); % Reduction in Dq (37°) (V79 cells; numeric): 30%; Frequency of Unrepaired Strand Breaks (L1210 cells; [3]): ++++ (401-500); Frequency of Unrepaired Strand Breaks (L1210 cells; numeric): 470 Rad. Eq.; In Vivo Radiosensitizing Activity (KHT fibrosarcoma tumors): +; Enhancement Ratio (in vivo) (KHT fibrosarcoma tumors; in vivo): 1.4-1.5; Optimum time preirradiation (KHT fibrosarcoma tumors; time of administration before irradiation): 2 to 3 h |
| 5200 | O=C1NCCc2c(OCc3ccccc3)cccc21 [Example VII, 3,4-Dihydro-5-(phenylmethoxy)-1(2H)-isoquinolinone] | – |
| 830 | O=C1NCCc2c(OCCCN3CCCCC3)cccc21 [Example XXVII, 3,4-Dihydro-5-[3-(1-piperidinyl)propoxy]-1(2H)-isoquinolinone] | – |
| 240 | Nc1cccc2c(=O)[nH]ccc12 [Example VIII, 5-Amino-1(2H)-isoquinolinone] | Shoulder Modification (% Reduction in DQ) (V79 cells): - (1-14%) |
| 1500 | COCC(O)COc1cccc2c1CCNC2=O (stereo not shown) [XXXVIII, 3,4-Dihydro-5-(2-hydroxy-3-methoxypropoxy)-1(2H)-isoquinolinone] | – |
| 580 | COc1cccc2c1CCN=C2SC [XVII, 3,4-Dihydro-5-methoxy-1-(methylthio)-isoquinoline] | – |
| 340 | O=C1NCCc2c(OCC(O)Cc3ccccc3)cccc21 (stereo not shown) [Example XL, 3,4-Dihydro-5-(2-hydroxy-3-phenylpropoxy)-1(2H)-isoquinolinone] | – |
| 2600 | CCOc1cccc2c1CCNC2=O [XXXV, 5-Ethoxy-3,4-dihydro-1(2H)-isoquinolinone] | – |

| IC50 [1, 2] [nM] | Structure (SMILES) | further results |
| --- | --- | --- |
| 1000 | CCc1cccc2c1CCNC2=O [XV, 5-Ethyl-3,4-dihydro-1(2H)-isoquinolinone] | Shoulder Modification (% Reduction in DQ) (V79 cells): - (1-14%); Frequency of Unrepaired Strand Breaks (L1210 cells; [3]): + (101-200) |
| 270 | O=C1NCCc2c(OC[C@@H](O)CN3CCCCC3)cccc21 [L, (S)-3,4-Dihydro-5-[2-hydroxy-3-(1-piperidinyl)propoxy]-1(2H)-isoquinolinone] | – |
| 660 | Nc1c[nH]c(=O)c2ccccc12 [Example XXV, 4-Amino-1(2H)-isoquinolinone monohydrochloride] | – |
| 80 | COc1cccc2c(=O)[nH]nc(C)c12 [XLII, 5-Methoxy-4-methyl-1(2H)phthalazinone] | – |
| 310 | O=C1NCCc2c(Cl)cccc21 [XVI, 5-Chloro-3,4-dihydro-1(2H)-isoquinolinone] | – |
| – | O=C1NCCc2c(OCCCCN3CCCCC3)cccc21 [XXXIV, 3,4-Dihydro-5-[4-(1-piperidinyl)butoxy]-1(2H)-isoquinolinone] | IC50 [1]: 800 nM |
| 2110 | CC(=O)Oc1cccc2c1CCNC2=O [Example VI, 5-(Acetyloxy)-3,4-dihydro-1(2H)-isoquinolinone] | – |
| 110 | CCCOc1cccc2c1CCNC2=O [XXXVI, 3,4-Dihydro-5-propoxy-1(2H)-isoquinolinone] | – |
| 410 | Cl.Nc1cccc2c1CCNC2=O [IX, 5-Amino-3,4-dihydro-1(2H)-isoquinolinone, monohydrochloride] | Shoulder Modification (% Reduction in DQ) (V79 cells): - (1-14%); Frequency of Unrepaired Strand Breaks (L1210 cells; [3]): +++ (301-400) |
| 770 | O=C1NCCc2c(OCC(O)CN3CCCC3)cccc21 (stereo not shown) [XXVIII, 3,4-Dihydro-5-[2-hydroxy-3-(1-pyrrolidinyl)propoxy]-1-(2H)-isoquinolinone] | – |
| 61 | O=c1[nH]cc(Br)c2c(O)cccc12 [Example XXVI, 4-Bromo-5-hydroxy-1(2H)-isoquinolinone] | – |
| 1500 | O=C1NCCc2c(OCC(O)CN3CCOCC3)cccc21 (stereo not shown) [XXIX] | – |
| 1550 | CSC1=NCCc2c(C)cccc21 [XIX, 3,4-Dihydro-5-methyl-1-(methylthio)-isoquinoline] | – |
| 56700 | CC(=O)Nc1cccc2c1CCNC2=O [Example XI, N-(1,2,3,4-Tetrahydro-1-oxo-5-isoquinolinyl)acetamide] | – |
| 650 | O=C1NCCc2c(OCC(O)COc3ccccc3)cccc21 (stereo not shown) [XXXIX, 3,4-Dihydro-5-(2-hydroxy-3-phenoxypropoxy)-1(2H)-isoquinolinone] | – |
| 330 | CNCCCOc1cccc2c1CCNC2=O [XXXII, 3,4-Dihydro-5-[3-methylamino)propoxy]-1(2H)-isoquinolinone hydrochloride] | – |
| 360 | Oc1ncc(Br)c2ccccc12 [XXIII, 4-Bromo-1-isoquinolinol] | – |
| 580 | COc1cccc2c(=O)[nH]ccc12 [XIV, 5-Methoxy-1(2H)-isoquinolinone] | – |
| 600 | O=C1NCCc2c(OCCc3ccccc3)cccc21 [XLI, 3,4-Dihydro-5-(phenylethoxy)-1(2H)-isoquinolinone] | – |

| Structure (SMILES) | IC50 [1, 2] [nM] | further results |
| --- | --- | --- |
| CCCCOc1cccc2c1CCNC2=O [XXXVII, 5-Butoxy-3,4-dihydro-1(2H)-isoquinolinone] | 6000 | – |

— patent US5177075A, “Substituted dihydroisoquinolinones and related compounds as potentiators of the lethal effects of radiation and certain chemotherapeutic agents; selected compounds, analogs and process” (priority 1991, dated 1993)
